Data from patent US20260076975A1, “TPK AGONIST AND METHOD FOR USING SAME TO TREAT NEURODEGENERATIVE DISEASES” (SHANGHAI RAISING PHARMACEUTICAL CO., LTD., priority 2022, published 2026).
Like-named read-outs stand apart in the source and are kept apart here.

Target: TPK enzyme (Homo sapiens, UniProt Q9H3S4)
Assay: TPK enzyme activity test (TDP formation from thiamine and ATP, HPLC detection)
Type: biochemical
Description: The purpose of this example was to test the promoting effect of compounds on TPK enzyme activity and evaluate the in vitro activity of the compounds based on EC50 and Emax.
1.1) The constant-temperature water-bath shaker was pre-heated half an hour in advance at a pre-heating temperature of 37° C.
1.2) The stock solution of the compound to be tested was taken out, allowed to thaw at room temperature, and then diluted to the required concentration.
1.3) The required reagents were placed on ice to thaw.
2.1) For each reaction system, TPK enzyme solution, Tris-HCl buffer solution, and ATP solution were added. The concentration of ATP used was 1-500 mM. The above three solutions were formulated into a homogeneous mixture.
2.2) The mixture of the above three solutions was dispensed into centrifuge tubes. Then, the compound at the required concentration was added to each centrifuge tube. Finally, thiamine solution (1-100 μM) was added. After the addition of the above system was completed, the centrifuge tubes were tightly capped, inserted into a floating board, and placed in the constant-temperature water-bath shaker that had been pre-heated to 37° C. for incubation for 0.5-2.0 hours.
2.3) After the incubation was completed, perchloric acid stop solution was added and mixed well. Samples were taken into 1.5 mL centrifuge tubes and stored at −20° C.
3.1) The samples stored at −20° C. were taken out, thawed at room temperature, and then subjected to derivatization treatment. The samples were placed in centrifuge tubes, a potassium ferricyanide derivatization reagent was added, and finally phosphoric acid stop solution was added to stop the reaction.
3.2) The derivatized samples were placed in sample vials for liquid chromatography analysis, and the contents of TDP/thiamine were detected by high performance liquid chromatography. TKP enzyme activity=TDP (nM)/mg protein/min.
The effects of the compounds of the present invention on TPK enzyme activity at different concentrations were determined according to the above procedures.

[1] = promoting effect on TPK enzyme activity
[2] = promoting effect on TPK enzyme activity, calculated with the effect of DMSO on TPK enzyme activity as 100%, read-out: Emax

Chain of TPK enzyme (Q9H3S4 whole entry): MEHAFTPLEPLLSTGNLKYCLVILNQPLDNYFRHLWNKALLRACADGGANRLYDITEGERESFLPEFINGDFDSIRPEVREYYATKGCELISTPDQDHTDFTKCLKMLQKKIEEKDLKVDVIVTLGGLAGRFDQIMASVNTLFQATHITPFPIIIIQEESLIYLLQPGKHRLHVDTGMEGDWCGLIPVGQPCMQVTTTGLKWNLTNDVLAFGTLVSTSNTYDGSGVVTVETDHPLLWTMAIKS

SMILES	EC50 [1] [µM]	Emax [2] [%]	Emax [%]
COc1ccc(/C=C/C(=O)N2CCN(c3cccc(Cl)c3Cl)CC2)cc1OC [Compound 58]	1.2	223	–
O=C1CCc2cc(OCCCN3CC(=O)Nc4ccc(Cl)cc43)ccc2N1 [Compound 115, 6-chloro-4-(3-((2-oxo-1,2,3,4-tetrahydroquinolin-6-yl)oxy)propyl)-3,4-dihydroquinoxalin-2(1H)-one]	–	159	–
COc1cc2c(cc1OC)N(CCCCN1CCN(c3cccc(Cl)c3Cl)CC1)C(=O)C2 [Compound 79, 1-(4-(4-(2,3-dichlorophenyl)piperazin-1-yl)butyl)-5,6-dimethoxyindolin-2-one]	–	–	133
O=C1CCc2ccc(OCCN3CCN(c4nc5ccccc5s4)CC3)cc2N1 [Compound 34, 7-(2-(4-(benzo[d]thiazol-2-yl)piperazin-1-yl)ethoxy)-3,4-dihydroquinolin-2(1H)-one]	1.3	189	–
Clc1cccc(N2CCN(CCCOc3ccc4ncsc4c3)CC2)c1Cl [Compound 28, 6-(3-(4-(2,3-dichlorophenyl)piperazin-1-yl)propoxy)benzo[d]thiazole]	1.54	185	–
CN(CC(=O)NCc1ccc(F)cc1)S(=O)(=O)c1ccc2[nH]c(=O)ccc2c1 [Compound 144]	–	121	–
CC(=O)N1CCCc2cc(C(=O)N3CCN(c4cccc(C(F)(F)F)c4)CC3)ccc21 [Compound 165, 1-(6-(4-(3-(trifluoromethyl)phenyl)piperazine-1-carbonyl)-3,4-dihydroquinolin-1(2H)-yl)ethan-1-one]	9.8	–	148
O=C1Cc2ccc(OCCCCN3CCN(c4nc5ccccc5s4)CC3)cc2N1 [Compound 44, 6-(4-(4-(benzo[d]thiazol-2-yl)piperazin-1-yl)butoxy)indolin-2-one]	1.14	235	–
CC(=O)N1CCCc2cc(C(=O)N3CCC(Cc4ccc(F)cc4)CC3)ccc21 [Compound 168, 1-(6-(4-(4-fluorobenzyl)piperidine-1-carbonyl)-3,4-dihydroquinolin-1(2H)-yl)ethan-1-one]	5.43	151	–
O=c1ccc2ccc(OCCCCN3CCN(c4cccc(Cl)c4Cl)CC3)cc2[nH]1 [Compound 10, 7-(4-(4-(2,3-dichlorophenyl)piperazin-1-yl)butoxy)quinolin-2(1H)-one]	0.13	183	–
O=C(CN1CCN(C(=O)CCC2Cc3ccccc3NC2=O)CC1)Nc1ccccc1Cl (centres unmarked) [Compound 140]	8.75	203	–
O=C1CCc2ccc(OCCCCN3CCN(c4cccc(Cl)c4Cl)CC3)cc2N1 [Compound 2]	0.46	155	–
O=C1NCCN1CCN1CCC(c2cn(-c3ccc(F)cc3)c3ccc(Cl)cc23)CC1 [Compound 136]	2.79	137	–
O=C1CCc2cc(OCC(=O)N3CCCN(Cc4ccc(Cl)cc4)CC3)ccc2N1 [Compound 141]	–	124	–
COc1ccc(C(=O)NCCC(=O)N2CCN(c3cccc(Cl)c3Cl)CC2)cc1OC [Compound 169, N-(3-(4-(2,3-dichlorophenyl)piperazin-1-yl)-3-oxopropyl)-3,4-dimethoxybenzamide]	7.23	–	148
O=C(CN1CCN(c2ccc(F)cc2)CC1)NC(=O)NCCc1c[nH]c2ccc(F)cc12 [Compound 146]	1.34	175	–
CN(CCOCc1cccc(Cl)c1Cl)CCOc1ccc2c(c1)NC(=O)CC2 [Compound 98, 7-(2-((2-((2,3-dichlorobenzyl)oxy)ethyl)(methyl)amino)ethoxy)-3,4-dihydroquinolin-2(1H)-one]	–	139	–
O=C1CCc2ccc(OCCCCCN3CCN(c4cccc(Cl)c4Cl)CC3)cc2N1 [Compound 4, 7-((5-(4-(2,3-dichlorophenyl)piperazin-1-yl)pentyl)oxy)-3,4-dihydroquinolin-2(1H)-one]	1.04	194	–
O=C1CCc2ccc(OCCCCCCN3CCN(c4cccc(Cl)c4Cl)CC3)cc2N1 [Compound 3, 7-((6-(4-(2,3-dichlorophenyl)piperazin-1-yl)hexyl)oxy)-3,4-dihydroquinolin-2(1H)-one]	–	205	–
